These results are taken from the supplement of paper PMC10307832.

Assay in all cases: relative viability (nuclei count vs DMSO), 5 days (fraction); higher = more cells survive
The test system of one assay is A549. The essentials: (§1)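 Each reported value is a median over duplicate plates. It expresses relative viability: treated-well nuclei count divided by vehicle-well nuclei count. Lung cancer cell lines in 1536-well plates were dosed by pin tool a day after seeding, alone with one drug or with a fixed anchor-drug dose plus five library-drug doses (not always all listed) in √10 steps, and nuclei were counted after 5 days.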

The next assay has as its system CAL-12T. The essentials: as §1
The next assay deals with Calu-6. The essentials: as §1
Another assay concerns EBC-1. The essentials:
as §1

The next assay has as its system IA-LM. The essentials: as §1
For another assay, the system named is NCI-H1299. The essentials:
as §1

Another assay deals with NCI-H1703. The essentials:
as §1

Regarding `COc1cc(N2CCC(C(N)=O)CC2)ccc1Nc1nc(N)c(Cl)c(Nc2ccccc2S(=O)(=O)C(C)C)n1` [HG-5-88-01] + CC1(C)CCC(c2ccc(Cl)cc2)=C(CN2CCN(c3ccc(C(=O)NS(=O)(=O)c4ccc(N[C@H](CCN5CCOCC5)CSc5ccccc5)c(S(=O)(=O)C(F)(F)F)c4)cc3)CC2)C1 [Navitoclax] (partner 0.5 µM), the relative viability in the assay with A549 (first compound 0.04 µM) amounted to 1.23; in the assay on A549 (first compound 0.1265 µM), 1.21; with A549 (first compound 0.4 µM) it was 1.07; in the assay on A549 (first compound 1.265 µM), 0.87; in the assay with A549 (first compound 4 µM) it was 0.687; in the assay on CAL-12T (first compound 0.04 µM), 1.26. In addition, the relative viability with CAL-12T (first compound 0.1265 µM) stood at 1.15; with CAL-12T (first compound 0.4 µM) it was 1.18; with CAL-12T (first compound 1.265 µM), 1.14; with CAL-12T (first compound 4 µM), 1.02; with Calu-6 (first compound 0.04 µM) it was 0.958; with Calu-6 (first compound 0.1265 µM), 0.86. For the same compound, the relative viability with Calu-6 (first compound 0.4 µM) came out at 0.717; in the assay with Calu-6 (first compound 1.265 µM), 0.693; with Calu-6 (first compound 4 µM) it was 0.46; in the assay on EBC-1 (first compound 0.04 µM), 0.407; with EBC-1 (first compound 0.1265 µM), 0.457; with EBC-1 (first compound 0.4 µM), 0.427. The relative viability came out at 0.241 with EBC-1 (first compound 1.265 µM); 0.217 in the assay on EBC-1 (first compound 4 µM); 0.835 in the assay on IA-LM (first compound 0.04 µM); 0.794 in the assay on IA-LM (first compound 0.1265 µM); 0.731 in the assay on IA-LM (first compound 0.4 µM); 0.825 with IA-LM (first compound 1.265 µM). For the same compound, the relative viability with IA-LM (first compound 4 µM) is 0.802; in the assay on NCI-H1299 (first compound 0.04 µM), 1.03; with NCI-H1299 (first compound 0.1265 µM) it was 1.08; in the assay on NCI-H1299 (first compound 0.4 µM) it was 1.03; with NCI-H1299 (first compound 1.265 µM), 1.06; with NCI-H1299 (first compound 4 µM), 1.02. The relative viability with NCI-H1703 (first compound 0.04 µM) was 0.719; with NCI-H1703 (first compound 0.1265 µM), 1.22; with NCI-H1703 (first compound 0.4 µM), 1.2; with NCI-H1703 (first compound 1.265 µM), 0.926; in the assay on NCI-H1703 (first compound 4 µM), 0.762.
In the case of `CC(C)Oc1cc(Nc2nc(N[C@@H](C)c3ccc(F)cn3)ncc2Cl)n[nH]1` [AZ23] + CS(=O)(=O)N1CCN(Cc2cc3nc(-c4cccc5[nH]ncc45)nc(N4CCOCC4)c3s2)CC1 [Pictilisib] (partner 1 µM), the relative viability in the assay with A549 (first compound 0.01 µM) worked out at 0.586; in the assay with A549 (first compound 0.03162 µM) it was 0.676; in the assay with A549 (first compound 0.3162 µM), 0.416; in the assay on CAL-12T (first compound 0.03162 µM) it was 0.418; with CAL-12T (first compound 0.3162 µM), 0.406; in the assay on Calu-6 (first compound 0.01 µM), 0.883. Also, the relative viability stood at 1.13 in the assay with Calu-6 (first compound 0.03162 µM); 0.986 in the assay on Calu-6 (first compound 0.3162 µM); 0.312 in the assay with EBC-1 (first compound 0.01 µM); 0.397 in the assay with EBC-1 (first compound 0.03162 µM); 0.345 in the assay on EBC-1 (first compound 0.3162 µM); 0.403 in the assay on IA-LM (first compound 0.01 µM). Besides, the relative viability in the assay with IA-LM (first compound 0.03162 µM) amounted to 0.334; with IA-LM (first compound 0.3162 µM), 0.419; in the assay on NCI-H1299 (first compound 0.03162 µM), 0.954; with NCI-H1299 (first compound 0.3162 µM) it was 1.13; in the assay on NCI-H1703 (first compound 0.03162 µM) it was 0.291; in the assay on NCI-H1703 (first compound 0.3162 µM), 0.218.
For the compound `CC(C)Oc1cc(Nc2nc(N[C@@H](C)c3ccc(F)cn3)ncc2Cl)n[nH]1` [AZ23] + C[C@]1(O)C[C@@H](c2nc(-c3ccc4ccc(-c5ccccc5)nc4c3)c3c(N)nccn32)C1 [Linsitinib] (partner 1 µM), the relative viability in the assay with A549 (first compound 0.01 µM) came out at 0.659; with A549 (first compound 0.03162 µM), 0.572; in the assay on A549 (first compound 0.3162 µM) it was 0.701; with CAL-12T (first compound 0.01 µM), 0.551; with CAL-12T (first compound 0.03162 µM) it was 0.724; in the assay on CAL-12T (first compound 0.3162 µM) it was 0.861. Further, the relative viability with Calu-6 (first compound 0.03162 µM) stood at 1.01; with Calu-6 (first compound 0.3162 µM), 0.953; with EBC-1 (first compound 0.01 µM), 1.1; with EBC-1 (first compound 0.03162 µM), 0.836; in the assay on EBC-1 (first compound 0.3162 µM), 1.07; in the assay on IA-LM (first compound 0.01 µM), 0.601. The relative viability is 0.386 in the assay with IA-LM (first compound 0.03162 µM); 0.627 in the assay with IA-LM (first compound 0.3162 µM); 0.977 in the assay on NCI-H1299 (first compound 0.01 µM); 0.99 in the assay on NCI-H1299 (first compound 0.03162 µM); 1.09 in the assay on NCI-H1299 (first compound 0.3162 µM); 0.647 in the assay on NCI-H1703 (first compound 0.03162 µM). The compound further displayed a relative viability in the assay on NCI-H1703 (first compound 0.3162 µM) of 0.592.
With `CC(C)Oc1cc(Nc2nc(N[C@@H](C)c3ccc(F)cn3)ncc2Cl)n[nH]1` [AZ23] + C[C@@H](Oc1cc(-c2cnn(C3CCNCC3)c2)cnc1N)c1c(Cl)ccc(F)c1Cl [Crizotinib] (partner 1 µM), the relative viability with A549 (first compound 0.01 µM) was found to be 1.08; in the assay with A549 (first compound 0.03162 µM), 1.03; with A549 (first compound 0.3162 µM), 0.943; with CAL-12T (first compound 0.01 µM), 0.324; in the assay with CAL-12T (first compound 0.03162 µM), 0.759; with CAL-12T (first compound 0.3162 µM), 0.583. Moreover, the relative viability in the assay on Calu-6 (first compound 0.03162 µM) turned out to be 0.987; in the assay on Calu-6 (first compound 0.3162 µM) it was 0.974; in the assay with EBC-1 (first compound 0.03162 µM), 0.196; in the assay on EBC-1 (first compound 0.3162 µM) it was 0.185; in the assay on IA-LM (first compound 0.01 µM), 0.919; in the assay on IA-LM (first compound 0.03162 µM), 0.824. In addition, the relative viability in the assay on IA-LM (first compound 0.3162 µM) was found to be 0.813; in the assay with NCI-H1299 (first compound 0.01 µM), 1.06; in the assay on NCI-H1299 (first compound 0.03162 µM), 1.01; in the assay on NCI-H1299 (first compound 0.3162 µM), 1.08; in the assay with NCI-H1703 (first compound 0.01 µM), 0.51; in the assay on NCI-H1703 (first compound 0.03162 µM) it was 0.761. In addition, the relative viability with NCI-H1703 (first compound 0.3162 µM) was 0.626.
For the compound `C[C@@H]1CN(CC(=O)Nc2ccc3c(c2)Cc2cccc(-c4cc(=O)cc(N5CCOCC5)o4)c2S3)C[C@H](C)O1` + C[C@]1(O)C[C@@H](c2nc(-c3ccc4ccc(-c5ccccc5)nc4c3)c3c(N)nccn32)C1 [Linsitinib] (partner 1 µM), the relative viability in the assay on A549 (first compound 0.04 µM) was determined as 0.471; with A549 (first compound 0.1265 µM) it was 0.709; in the assay on A549 (first compound 0.4 µM), 0.58; in the assay on A549 (first compound 4 µM), 0.488; in the assay with CAL-12T (first compound 0.04 µM), 0.893; in the assay with CAL-12T (first compound 0.1265 µM) it was 0.78. The relative viability in the assay with CAL-12T (first compound 0.4 µM) came out at 0.648; in the assay on CAL-12T (first compound 4 µM), 0.54; with Calu-6 (first compound 0.04 µM), 0.858; with Calu-6 (first compound 0.1265 µM), 0.911; in the assay on Calu-6 (first compound 0.4 µM), 0.938; in the assay with Calu-6 (first compound 4 µM), 0.673. Besides, the relative viability in the assay with EBC-1 (first compound 0.04 µM) turned out to be 1.01; with EBC-1 (first compound 0.1265 µM), 0.867; in the assay with EBC-1 (first compound 0.4 µM), 0.84; in the assay on EBC-1 (first compound 4 µM), 0.599; in the assay on IA-LM (first compound 0.04 µM) it was 0.713; in the assay on IA-LM (first compound 0.1265 µM), 0.549. The relative viability worked out at 0.528 with IA-LM (first compound 0.4 µM); 0.283 in the assay with IA-LM (first compound 4 µM); 1.01 in the assay on NCI-H1299 (first compound 0.04 µM); 0.978 in the assay with NCI-H1299 (first compound 0.1265 µM); 0.964 in the assay with NCI-H1299 (first compound 0.4 µM); 0.822 in the assay with NCI-H1299 (first compound 4 µM). Besides, the relative viability with NCI-H1703 (first compound 0.04 µM) is 0.853; in the assay with NCI-H1703 (first compound 0.1265 µM) it was 1.24; in the assay with NCI-H1703 (first compound 0.4 µM), 0.549; in the assay with NCI-H1703 (first compound 4 µM), 0.492.
